Nine compounds from publication PMC11872639 (Food Chemistry: Molecular Sciences, 2025) can be followed below.

Like-named read-outs stand apart in the source and are kept apart here.

One assay addresses T1, TAS1R2/TAS1R3 (Homo sapiens, UniProt Q7RTX0+Q8TE23).
T1 construct: we performed functional expression of the full-length heterodimeric sweet taste TAS1R2/TAS1R3 receptor using HEK293-derived cells; expressed in transfected cells; host or cells: HEK293T-Gα16gust44 cells transfected with pcDNA6-TAS1R2 and pcDNA4-TAS1R3
T1 sequence (Q8TE23 20-839): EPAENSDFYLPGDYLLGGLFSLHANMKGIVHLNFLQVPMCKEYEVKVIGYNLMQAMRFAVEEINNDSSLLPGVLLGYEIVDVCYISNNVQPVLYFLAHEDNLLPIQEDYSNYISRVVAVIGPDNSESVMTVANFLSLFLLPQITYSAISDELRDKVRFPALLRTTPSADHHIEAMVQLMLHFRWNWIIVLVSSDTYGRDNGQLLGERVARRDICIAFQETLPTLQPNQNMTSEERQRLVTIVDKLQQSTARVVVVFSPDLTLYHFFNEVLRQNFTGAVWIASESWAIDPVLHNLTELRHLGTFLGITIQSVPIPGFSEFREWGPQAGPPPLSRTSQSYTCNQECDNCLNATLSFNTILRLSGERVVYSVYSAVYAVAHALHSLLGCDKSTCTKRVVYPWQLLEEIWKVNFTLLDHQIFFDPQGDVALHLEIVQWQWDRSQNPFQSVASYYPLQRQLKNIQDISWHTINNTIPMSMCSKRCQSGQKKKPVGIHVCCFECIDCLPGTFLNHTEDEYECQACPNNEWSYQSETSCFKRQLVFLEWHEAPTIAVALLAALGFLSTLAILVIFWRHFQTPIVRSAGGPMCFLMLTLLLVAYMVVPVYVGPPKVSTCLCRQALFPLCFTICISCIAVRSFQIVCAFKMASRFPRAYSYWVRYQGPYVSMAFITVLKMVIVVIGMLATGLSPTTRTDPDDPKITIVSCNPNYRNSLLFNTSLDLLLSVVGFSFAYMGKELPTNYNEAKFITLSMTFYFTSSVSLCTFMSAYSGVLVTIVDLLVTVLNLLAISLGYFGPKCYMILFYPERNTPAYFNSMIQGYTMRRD
T1 sequence (Q7RTX0 21-852): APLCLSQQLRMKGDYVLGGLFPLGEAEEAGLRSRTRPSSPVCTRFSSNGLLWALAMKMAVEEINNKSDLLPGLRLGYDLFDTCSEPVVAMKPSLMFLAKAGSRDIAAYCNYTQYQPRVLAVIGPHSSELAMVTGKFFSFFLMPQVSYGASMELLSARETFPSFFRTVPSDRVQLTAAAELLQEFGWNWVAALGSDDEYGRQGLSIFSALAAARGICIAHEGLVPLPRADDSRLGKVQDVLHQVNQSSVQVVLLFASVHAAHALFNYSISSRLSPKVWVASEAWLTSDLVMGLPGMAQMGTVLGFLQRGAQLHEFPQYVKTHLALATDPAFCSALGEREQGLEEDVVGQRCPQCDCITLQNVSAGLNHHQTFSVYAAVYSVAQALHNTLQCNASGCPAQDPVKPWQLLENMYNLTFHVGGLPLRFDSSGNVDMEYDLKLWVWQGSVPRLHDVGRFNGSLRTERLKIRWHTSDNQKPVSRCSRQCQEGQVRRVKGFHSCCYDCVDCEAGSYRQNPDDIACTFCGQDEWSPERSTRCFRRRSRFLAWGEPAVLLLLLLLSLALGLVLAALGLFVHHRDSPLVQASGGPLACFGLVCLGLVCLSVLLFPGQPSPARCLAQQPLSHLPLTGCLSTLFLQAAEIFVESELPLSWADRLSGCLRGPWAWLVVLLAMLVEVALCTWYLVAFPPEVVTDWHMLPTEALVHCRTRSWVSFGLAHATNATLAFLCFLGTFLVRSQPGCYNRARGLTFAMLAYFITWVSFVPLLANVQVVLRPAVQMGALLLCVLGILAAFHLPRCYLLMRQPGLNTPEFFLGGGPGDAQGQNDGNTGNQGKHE
In words: Calcium mobilization assay, HEK293T-Gα16gust44 cells expressing TAS1R2/TAS1R3. It is filed as cell-based. As for the experimental part:
(§1) The synthetic cDNA optimized for human TAS1R2 and TAS1R3 expression was cloned into the pcDNA6-myc-HisA and pcDNA4-myc-HisA vectors, generating the pcDNA6-TAS1R2 and pcDNA4-TAS1R3 plasmids, respectively (Genewiz).
(§2) The stable HEK293T-Gα16gust44 cells were constructed by stable transfection of pcDNA3.1/Hygro-Gα16gust44 plasmid into HEK293T cells using Lipofectamine 2000 (Invitrogen). After 48 h, the cells were selected with 400 μg/mL hygromycin for 2–3 weeks. Thirty individual hygromycin-resistant colonies were expanded and screened for functional expression after transient co-transfection with pcDNA6-TAS1R2 and pcDNA4-TAS1R3 and measurement of calcium responses to sucralose. In the same way, clone selection was done under zeocin selection (250 μg/mL) to generate a stable HEK293T-Gα16gust44-TAS1R3 cell line for further calcium mobilization assays.
(§3) Forty-eight hours before the assay, HEK293T-Gα16gust44 or HEK293T-Gα16gust44-TAS1R3 cells were plated (4 × 10^4 cells/well) on poly-D-lysine-coated 96-well plates. Twenty-four hours later, cells were transiently transfected with pcDNA6-TAS1R2 and pcDNA4-TAS1R3 with Lipofectamine 2000 according to the manufacturer's instructions. As a negative control, HEK293T cells were mock-transfected with the empty expression vector. […] The fluorescence intensity was measured for 90 s after the addition of the compounds. […] All concentration-receptor combinations were measured in triplicate, and each experiment was repeated at least four times. The Ca^2+ changes are expressed as fractional changes in fluorescence light intensity: ΔF/F0 = (F—F0)/F0, where F is the fluorescence light intensity at each point and F0 is the value of emitted fluorescent light before the stimulus application. For the calculation of dose-response relationships, the changes in fluorescence upon stimulus application were averaged, mock-subtracted and baseline-corrected. The resulting dose-response data were fitted using a four-parameter logistic equation. The half-maximal effective concentrations (EC50 values) were calculated using SigmaPlot software.

Another assay addresses T2, TAS1R3 (Homo sapiens, UniProt Q7RTX0).
T2 construct: we performed functional expression of the full-length heterodimeric sweet taste TAS1R2/TAS1R3 receptor using HEK293-derived cells; expressed in transfected cells
T2 sequence (Q7RTX0 21-852): T1 sequence (Q7RTX0 21-852)
Kind of assay: Calcium mobilization assay, HEK293T-Gα16gust44 cells stably expressing TAS1R3 alone. It is filed as cell-based. As for the experimental part:
as §1, §2, §3

Another assay deals with T3, TAS1R3-VFT (Homo sapiens, UniProt Q7RTX0).
T3 construct: pET28-TAS1R3-VFT encodes an N-terminal His6-tag followed by TAS1R3-VFT (Ala21-Ser497) and the Strep-tag II; made in house
T3 sequence (Q7RTX0 21-497): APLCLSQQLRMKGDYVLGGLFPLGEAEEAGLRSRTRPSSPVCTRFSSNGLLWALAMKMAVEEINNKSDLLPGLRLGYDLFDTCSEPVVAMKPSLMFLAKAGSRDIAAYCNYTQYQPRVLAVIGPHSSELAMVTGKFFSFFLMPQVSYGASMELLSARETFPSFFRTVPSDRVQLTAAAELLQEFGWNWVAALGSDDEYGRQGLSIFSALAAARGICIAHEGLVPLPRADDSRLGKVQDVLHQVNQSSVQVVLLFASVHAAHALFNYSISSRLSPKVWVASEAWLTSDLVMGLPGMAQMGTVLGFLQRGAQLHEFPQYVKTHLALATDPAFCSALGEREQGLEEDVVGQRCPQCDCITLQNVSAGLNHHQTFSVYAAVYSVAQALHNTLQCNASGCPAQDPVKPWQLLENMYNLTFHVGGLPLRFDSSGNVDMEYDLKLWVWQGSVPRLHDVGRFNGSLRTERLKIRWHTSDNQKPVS
In words: Ligand binding by intrinsic tryptophan fluorescence, TAS1R3-VFT. The procedure:
(§4) The intrinsic fluorescence of TAS1R-VFTs was measured using a Cary Eclipse spectrofluorometer (Varian Instruments, Palo Alto, CA, USA) equipped with a Peltier temperature control unit. […] Ligand solutions were freshly prepared in the same buffer. […] The temperature was kept constant at 20 °C. Fluorescence measurements were corrected for dilution, bleaching and nonspecific buffer quenching. Kd values and standard errors were calculated from a plot of the ratio between the fluorescence intensity variation and the maximum of fluorescence intensity variation versus concentration of total ligand, obtained with a standard non-linear regression method and using a one-site saturation ligand binding equation within SigmaPlot software (version 15.0, Grafiti, Palo Alto, CA, USA). […] The Kd values of ligand-receptor interactions were determined using the equation ΔF/ΔFmax = Bmax [L]/(Kd + [L]), where Kd is the apparent dissociation constant, ΔF is the difference between the fluorescence intensity at a given concentration of ligand and the fluorescence intensity in the absence of ligand, ΔFmax is the difference at infinite ligand concentration [L], Bmax is the maximum fluorescence signal, and [L] corresponds to the concentration of ligands. The reported Kd values are the average of six measurements performed on at least three independently refolded protein samples. All compounds were obtained from Sigma-Aldrich. Statistical analyses: Dunnett's test (p ≤ 0.05) was used to determine the statistical significance between data means.

For another assay, the target named is T4, TAS1R1-VFT (Homo sapiens, UniProt Q7RTX1).
T4 construct: followed by TAS1R1-VFT (Phe21-Ser495) or TAS1R2-VFT (Ala22-Ser493) and a second His6-tag; His6-tag (thrombin-cleavable) (N); made in house
T4 sequence (Q7RTX1 21-495): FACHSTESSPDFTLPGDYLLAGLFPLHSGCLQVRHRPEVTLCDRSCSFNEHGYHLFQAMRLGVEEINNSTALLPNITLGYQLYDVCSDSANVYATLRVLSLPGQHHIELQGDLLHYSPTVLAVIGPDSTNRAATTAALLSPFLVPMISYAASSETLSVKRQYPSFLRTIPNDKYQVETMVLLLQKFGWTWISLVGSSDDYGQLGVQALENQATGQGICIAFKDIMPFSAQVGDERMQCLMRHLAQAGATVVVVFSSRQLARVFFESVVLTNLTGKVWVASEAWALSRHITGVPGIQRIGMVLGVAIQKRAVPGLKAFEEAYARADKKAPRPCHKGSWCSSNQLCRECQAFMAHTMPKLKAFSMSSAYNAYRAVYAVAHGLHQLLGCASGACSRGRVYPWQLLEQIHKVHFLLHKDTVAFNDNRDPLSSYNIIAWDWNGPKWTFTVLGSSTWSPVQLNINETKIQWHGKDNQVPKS
In words: Ligand binding by intrinsic tryptophan fluorescence, TAS1R1-VFT. The procedure:
as §4, with “All compounds were obtained from Sigma-Aldrich. Statistical analyses: Dunnett's test (p ≤ 0.05) was used to determine the statistical significance between data means.” left out

Where [1] appears, read: sweet compound alone (Fig. 3, IMP series).
Setting [2] is: sweet compound alone (Fig. 5c,d, MSG series).

For the compound `C=C(C)C1CC=C(/C=N/O)CC1` (stereo in doubt) [Perillartine, perillartine], the EC50 at TAS1R2/TAS1R3 (setting [1]) turned out to be 24 ± 2 µM.
In the case of `COc1ccc(CCC(=O)c2c(O)cc(O[C@@H]3O[C@H](CO)[C@@H](O)[C@H](O)[C@H]3O[C@@H]3O[C@@H](C)[C@H](O)[C@@H](O)[C@H]3O)cc2O)cc1O` [NHDC, neohesperidine dihydrochalcone], the EC50 on TAS1R2/TAS1R3 (setting [1]) was 41 ± 29 µM.
Consider `[Ca+2].[Cl-].[Cl-]` [CaCl2], for which the EC50 was found to be 28000 ± 3000 µM on TAS1R2/TAS1R3 (CaCl2 alone, TAS1R2/TAS1R3) and 47000 ± 13000 µM on TAS1R3 (CaCl2 alone, TAS1R3 alone). For the same compound, the “max (maximal amplitude, ΔF/F0)” value on TAS1R2/TAS1R3 (CaCl2 alone, TAS1R2/TAS1R3) is 0.40; at TAS1R2/TAS1R3 (CaCl2 in the presence of 10 mM IMP, TAS1R2/TAS1R3), 0.28; at TAS1R2/TAS1R3 (CaCl2 in the presence of 10 mM cyclamate, TAS1R2/TAS1R3), 0.19; on TAS1R3 (CaCl2 alone, TAS1R3 alone), 0.37; on TAS1R3 (CaCl2 in the presence of 10 mM IMP, TAS1R3 alone), 0.17; at TAS1R3 (CaCl2 in the presence of 10 mM cyclamate, TAS1R3 alone), 0.14.
In the case of `O=S(=O)(O)NC1CCCCC1` [Cyclamate, cyclamate], on TAS1R2/TAS1R3 (setting [1]), the EC50 is 2310 ± 954 µM. For the same compound, the “amplitude of the maximum calcium-induced response of TAS1R3 reduced to” value at TAS1R3 (modulator at 10 mM, CaCl2 stimulation) is roughly 62%.
`N[C@@H](CCC(=O)O)C(=O)O` [L-Glu, L-glutamate] gave a Kd on TAS1R3-VFT of 0.75 ± 0.2 µM.
Take `COC(=O)[C@H](Cc1ccccc1)NC(=O)[C@H](CC(=O)O)NCCC(C)(C)C` [Neotame, neotame]: the concentration for a half-maximal effect (EC50) came to 0.97 ± 0.12 µM at TAS1R2/TAS1R3 (setting [1]); 0.3 ± 0.08 µM at TAS1R2/TAS1R3 (sweet compound alone (Fig. 5a,b, GMP series)); 1.09 ± 0.16 µM on TAS1R2/TAS1R3 (setting [2]).
Turning to `N[C@@H](CC(=O)O)C(=O)O` [L-Asp, L-aspartate], the Kd on TAS1R1-VFT is 0.21 ± 0.06 µM; on TAS1R3-VFT (read-out: Kd TAS1R3-VFT), 1.18 ± 0.33 µM.
In the case of `OC[C@H]1O[C@H](O[C@]2(CCl)O[C@H](CCl)[C@@H](O)[C@@H]2O)[C@H](O)[C@@H](O)[C@H]1Cl` [Sucralose, sucralose], the EC50 was determined as 57 ± 13 µM at TAS1R2/TAS1R3 (setting [1]) and 56 ± 6 µM on TAS1R2/TAS1R3 (setting [2]). The “decrease in EC50 values by IMP (synergistic effect)” value at TAS1R2/TAS1R3 (sweetener with IMP vs sweetener alone) was 3 fold.
On to `N[C@H](CCC(=O)O)C(=O)O` [D-Glu, D-glutamate], for which the “impact on the fluorescence intensity of TAS1R1-VFT” value on TAS1R1-VFT (negative control) is “no significant impact”. Besides, at TAS1R3-VFT (ligand alone, absence of IMP, mean ± SEM, 20 °C, pH 8.0), the “Kd TAS1R3-VFT” value is “nb”. The “impact on the fluorescence intensity of TAS1R3-VFT” value at TAS1R3-VFT (negative control) is reported as “no significant impact”.
